According to patent publication US20240366624A1, “METHODS AND COMPOSITIONS FOR TREATING THROMBOTIC DISEASE” (Washington University, priority 2023, published 2024):
“Also recorded” adds a separate entry of the source.

Legend:
[1] = from studies; cited from earlier work
[2] = system: platelets; conditions: 10 to 33 μM, recent study; cited from earlier work
[3] = Water solubility; assay type: physicochemical
[4] = target: T1, ERO1α (Homo sapiens, UniProt Q96HE7); assay: Bio-layer interferometry, B12-5 on biotinylated ERO1α biosensor; conditions: read-out: KD, binding to ERO1α
T1 sequence (Q96HE7 24-468): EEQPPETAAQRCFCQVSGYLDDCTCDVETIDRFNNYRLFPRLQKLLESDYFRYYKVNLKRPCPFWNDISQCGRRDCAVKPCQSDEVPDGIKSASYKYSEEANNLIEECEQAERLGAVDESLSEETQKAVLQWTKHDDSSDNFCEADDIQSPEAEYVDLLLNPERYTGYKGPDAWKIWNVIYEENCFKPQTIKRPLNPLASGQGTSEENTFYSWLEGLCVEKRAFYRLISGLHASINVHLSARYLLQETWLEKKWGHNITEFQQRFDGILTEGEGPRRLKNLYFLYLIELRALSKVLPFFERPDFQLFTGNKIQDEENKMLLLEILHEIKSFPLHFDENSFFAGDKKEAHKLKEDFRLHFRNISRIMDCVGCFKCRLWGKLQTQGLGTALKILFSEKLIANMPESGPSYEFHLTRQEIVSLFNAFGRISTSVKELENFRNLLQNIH
Description: FIG. 18(A-R) is an exemplary embodiment of novel small-molecule inhibitors recapitulating the defect in Ero1α (endoplasmic reticulum oxidoreductase 1a)-null platelets in accordance with the present disclosure. FIG. 18A: The structure of B12 and its inhibitory effect on ERO1α activity. FIG. 18(B-E): The inhibitory effect of B12 on P-selectin exposure and αIIbβ3 integrin activation in (FIG. 18B and FIG. 18C) mouse and (FIG. 18D and FIG. 18E) human platelets. FIG. 18F: The structure of B12-5 and its inhibitory effect on ERO1α activity. FIG. 18G: A docking model of B12-5-ERO1α (3AHQ) and flavin adenine dinucleotide (FAD)-ERO1α complex. There are pi-sulfur interactions of the phenothiazine head group (B112-5) or a tricyclic ring (FAD) with Met389 and Cys397. Also, there are H bond interactions between the tail/alkyl group and His255, Asn259, and Arg287. […] After incubation with a different concentration of B12-5, the specific interaction between B12-5 and ERO1α was measured by subtracting the nonspecific binding. The KD value was calculated from the Kon and Koff values. […] P values determined by ANOVA and Dunnett test (FIG. 18(B-E), FIG. 18(1-L), and FIG. 18(O-R) [for B12-5]) or Student t test (FIG. 18M, FIG. 18N, and FIG. 18(O-R) [for BAPTA (1,2-bis(o-aminophenoxy)ethane-N,N,N′,N′-tetraacetic acid)]). […]

[5] = system: human platelets; assay: Ca2+ mobilization (FLIPR), human platelets; assay type: cell-based; conditions: thrombin or A23187
Procedure: Ca^2+ mobilization was measured as described previously. WT control and Ero1α-null platelets (1×10^8/mL) were suspended in HEPES-Tyrode buffer, pH 7.4. Cells were incubated with a Ca^2+ dye (FLIPR Ca^2+5 assay kit; Molecular Devices) for 30 minutes at 37° C. in the dark, followed by stimulation with thrombin (0.1 U/mL), A23187 (2 μM) or thapsigargin (10-20 μM). After measuring Ca^2+ release, 1 mM CaCl2) was immediately added to assess Ca^2+ influx. In other experiments, Ca^2+ dye-labeled human and WT mouse platelets were incubated with a vehicle or an inhibitor for 10 minutes at 37° C. Cytosolic Ca^2+ levels were measured using a FlexStation3 microplate reader with an excitation wavelength of 485 nm and an emission wavelength of 525 nm. Ca^2+ mobilization was quantified by the area under the curve and expressed as a relative fluorescence unit.

[6] = thiol-reacting (GSH) activity assay; assay type: biochemical
Description: FIG. 17(A-F) is an exemplary embodiment of identification of novel ERO1α inhibitors by high throughput screening in accordance with the present disclosure. FIG. 17A: A scheme of an ERO1α activity assay. FIG. 17B: Screening of chemical libraries in the ERO1α activity assay. FIG. 17C: The inhibitory effect of selected compounds on ERO1α activity. FIG. 17D: The inhibitory effect of selected compounds on PDI activity. FIG. 17E: The inhibitory effect of selected compounds on H2O2 activity. FIG. 17F: The inhibitory effect of selected compounds on thiol-reacting activity. The data represent the mean±SD (n=3). *P<0.05, **P<0.01, ***P<0.001, and ****P<0.0001 vs. vehicle control, Student's t-test.
To identify a novel ERO1α inhibitor, 5800 compounds were screened using an ERO1α activity assay (FIG. 17A and FIG. 17B). […] The selected compounds were further tested in assays measuring PDI, antioxidant, and thiol-reacting activities (FIG. 17D through FIG. 17F). […] B12 inhibited P-selectin exposure and αIIbβ3 activation in agonist-activated mouse and human platelets in a concentration-dependent manner (FIG. 18B through FIG. 18E).

Compound | thiol-reacting activity [1] | thrombin-induced platelet aggregation [2] | water solubility [3] | Kd [4] | Ca2+ release and influx [5] | GSH inhibition at 100 μM (%) ([6]; 100 μM) | effect on thiol-reacting activity ([6]; at or up to 100 μM)
O=C(O)c1cc(N2N=C(C(F)(F)F)/C(=C/c3ccc(-c4ccccc4)o3)C2=O)ccc1Cl [EN460] | has thiol-reacting activity | significantly blocks |  |  |  |  | 
O=C(CSc1nc(O)cc(O)n1)N1c2ccccc2Sc2ccccc21 [B12-5] |  |  | poor | 12.9 ± 3.8 µM | dose dependently inhibited | 9.7 ± 2% | minimal effect; also recorded: did not affect
